# Literature values in US8946301B2, “Targeting of T-lymphocytes to treat amyotrophic lateral sclerosis” (ALS Therapy Development Institute, priority 2011, dated 2015).
# Counter-ions that a name gives are not always drawn.
# What was measured:
# [1] = cited from earlier work
# [2] = test system: peripheral blood mononuclear cells (lymphocytes and monocytes); conditions: published reports; cited from earlier work
# patients with ALS = conditions: Borras-Blasco et al. 1998; cited from earlier work
compound,measurement,setting,value
CCCCCCCCc1ccc(CCC(N)(CO)CO)cc1 [Fingolimod hydrochloride],solubility in 0.9% saline,[1]; 0.9% saline,soluble
same,solubility in aqueous buffers at or above pH 3.0,"[1]; aqueous buffers, pH at or above 3.0",very slightly soluble or practically insoluble
same,solubility in aqueous buffers at or below pH 2.0,"[1]; aqueous buffers, pH at or below 2.0",soluble
same,solubility in water,[1]; water,> 10%
"NC(CO)(CO)CCc1ccc(Sc2cccc(OCc3ccccc3)c2)cc1Cl [KRP-203, 2-amino-2-[2-[2-chloro-4-(3-phenylmethoxyphenyl)sulfanylphenyl]ethyl]propane-1,3-diol]",lymphocyte homing into peripheral lymph nodes,[2],enhanced
same,number of granulocytes,[2],not
same,number of peripheral blood mononuclear cells (lymphocytes and monocytes),[2],reduce the number
Nc1nc2ccc(OC(F)(F)F)cc2s1 [Riluzole™],muscular strength of ALS patients,patients with ALS,does not appear to provide an improvement of muscular strength
